Patent US10617679B2, “Deuterated compounds and medical uses thereof” (JINGLUWEIDAI INFORMATION CONSULTING SERVICE (BEIJING) CO. …, priority 2016, dated 2020)

Key:
[1] = test system: rat formalin model; assay: Analgesic effects of intragastric administration in a rat formalin model; assay type: in vivo, SD rats; details: mean ± SD; for Reaction time for phase I: licking time 0-5 min after formalin; for Reaction time for Phase II: licking time 15-30 min after formalin
Method: SD rats (male, weight 160-180 g) were randomly divided into groups with 6 rats in each group. After the rats were intragastrically administered different doses separately, they were placed in PVC observation boxes for habituation. After 30 min, the rats were injected subcutaneously with 20 μL of 2.7% formalin solution into the plantar surface of the left hind paws, and quickly put back in the PVC observation boxes for observation. The length of time the rats spent licking the injected-formalin paws at the early response (0-5 min, phase I) and the late response (15-30 min, Phase II) was recorded, and the analgesic activities of the test compounds were evaluated according to the length of time the rats spent licking during the period of observation. The experimental data were expressed as mean±standard deviation. The shorter the licking time, the better the analgesic effect of the compound.

[2] = test system: rat chronic sciatic nerve compression neuralgia model; assay: Analgesic effects of intragastric administration in a rat chronic sciatic nerve compression neuralgia model; assay type: in vivo, SD rats; details: pain threshold 1 hour after administration
Method: SD rats (male, weight 160-180 g) were anesthetized using sodium pentobarbital (40 mg/kg), of which the sciatic nerves were separated in the middle segment of the right hind limbs. In the anterior segment of the sciatic nerve to be bifurcated, the sciatic nerve was separated from the surrounding tissue using a sterile glass hook. Four rings were loosely ligated with sterile chrome gut (No. 4, 0.15 mm in diameter) by an interval of 1 to 2 mm. Topically sprinkled with penicillin powder. The muscle tissue and skin were sutured. The rats were placed in a cage with cork dust. In the sham surgery group, the sciatic nerve was only exposed, and the other treatments were the same as described above. The rats after surgery were placed in a metal cage. […] The weight of the filament was recorded and set to be the threshold (in g). Meanwhile, the number of foot-lifting response to the 10 stimulations of the fiber filaments of different weights was recorded, and the highest threshold was set at 26 g.
5-6 rats in each group were intragastrically administered and the pain thresholds were measured 1 hour after administration. Statistical analysis of the thresholds was performed using non-parametric Wilcoxon 2-Sample Test and Kruskal-Wallis Test, and the data was analyzed with SASS data processing software. Analgesic percent (%)=(pain threshold after drug treatment−pain threshold before drug treatment)/(maximal analgesia threshold−pain threshold before drug treatment)[…].

[3] = test system: oxycodone-induced place preference in rats; assay: Inhibition of oxycodone-induced place preference in rats; assay type: in vivo, SD rats; details: day 10, within 15 minutes
Method: SD rats (male, weight 160-180 g) were placed in conditioned place preference (CPP) training boxes, where the partition door between the boxes was open. Time the rats spent in each of the boxes was recorded within 15 min in order to determine the natural tendency of the rats. The rats were then randomly divided into groups with 10 rats in each group according to the amount of time spent in the white box. The white box was a drug box, and the black box was a box with the absence of the drug. After intragastric administration with a test compound for 40 minutes, the rats were injected subcutaneously with oxycodone (2.5 mg/kg, s.c.) or saline, and immediately placed in the white box or the black box to be trained for 45 minutes, once a day for 9 consecutive days. On the 10th day, the rats were placed in the training boxes with the partition door open. The time the rats spent in the white box was recorded within 15 minutes to evaluate effects on place preference in the rats.

[4] = test system: blood pressure in rats; assay: Effects on blood pressure in rats; assay type: in vivo, SD rats
Method: (§1) SD rats (male, weight 160-180 g) were fasted for 12 hours before administration but had free access to drinking water. The rats were randomly divided into groups. They were anesthetized with an intraperitoneal injection of 50-60 mg/kg dose of sodium pentobarbital. Each rat was fixed on the back on the surgical table. The skin was cut from the center of the neck, and an incision of about 2.5 cm was made. The subcutaneous tissue and the median muscle were separated; the trachea was fully exposed; and the endotracheal intubation was performed. The subcutaneous tissue was separated from front to back on the right side; the right common carotid artery, the vagus nerve and the sympathetic nerve were exposed; and the carotid artery cannulation was performed. Finally, the endotracheal tube and the carotid artery cannula were respectively connected to a respiration transducer and a blood pressure transducer, and then connected to a multifunctional physiological recorder. At 30 minutes after surgery, the rats were intragastrically administrated. Heart rate and blood pressure were measured at different time points after administration.

[5] = test system: heart rate in rats; assay: Effects on heart rate in rats; assay type: in vivo, SD rats
Method: as §1

[6] = test system: Wistar rats; assay: Evaluation of subacute toxicity (14 days, intragastric); assay type: in vivo; details: 40 mg/kg intragastric once a day for 14 days; for ALT / AST: rat; for histopathological examination of liver / plasma ALT and AST versus control group: result in words
Method: Male Wistar rats were randomly divided into groups with 10 rats in each group and weighed. A certain concentration of a test sample was ground and suspended in a 0.5% sodium carboxymethyl cellulose solution. The sodium carboxymethyl cellulose suspension containing 40 mg/kg of the test compound and a blank sodium carboxymethyl cellulose suspension as a control were intragastrically administered, once a day for 14 consecutive days. After the last administration, the rats were fasted but had free access to drinking water for 12 hours, and then anesthetized. Their blood samples were obtained from the abdominal aortas. According to SOPB093 “Standard Operating Procedures for Serum Preparation” in National Beijing Center for Drug Safety Evaluation and Research, serum was prepared for the determination of blood biochemical and immunological indicators; according to SOPB032 “Preparation of vacuum tubes with EDTA anticoagulation”, EDTA anticoagulation was prepared for the general blood routine tests.

[7] = test dose 10 mg/kg intragastric + oxycodone 2.5 mg/kg s.c.
[8] = test dose 20 mg/kg intragastric + oxycodone 2.5 mg/kg s.c.
[9] = 20 mg/kg intragastric, time point 0
[10] = 20 mg/kg intragastric, time point 30
[11] = 20 mg/kg intragastric, time point 60
[12] = 20 mg/kg intragastric, time point 90
[13] = 20 mg/kg intragastric, time point 120
[14] = 20 mg/kg intragastric, time point 180
[15] = 40 mg/kg intragastric, time point 0
[16] = 40 mg/kg intragastric, time point 30
[17] = 40 mg/kg intragastric, time point 60
[18] = 40 mg/kg intragastric, time point 90
[19] = 40 mg/kg intragastric, time point 120
[20] = 40 mg/kg intragastric, time point 180

Row | SMILES | Reaction time for phase I ([1]; 20 mg/kg intragastric) [s] | Reaction time for Phase II ([1]; 20 mg/kg intragastric) [s] | Reaction time for phase I ([1]; 40 mg/kg intragastric) [s] | Reaction time for Phase II ([1]; 40 mg/kg intragastric) [s] | Analgesic percent ([2]; 20 mg/kg intragastric) [%] | Analgesic percent ([2]; 40 mg/kg intragastric) [%] | Time spent in the drug box (Mean ± S) [3, 7] [s] | Time spent in the drug box (Mean ± S) [3, 8] [s] | Blood pressure [4, 9] [mmHg] | Blood pressure [4, 10] [mmHg] | Blood pressure [4, 11] [mmHg] | Blood pressure [4, 12] [mmHg] | Blood pressure [4, 13] [mmHg] | Blood pressure [4, 14] [mmHg] | Blood pressure [4, 15] [mmHg] | Blood pressure [4, 16] [mmHg] | Blood pressure [4, 17] [mmHg] | Blood pressure [4, 18] [mmHg] | Blood pressure [4, 19] [mmHg] | Blood pressure [4, 20] [mmHg] | further results
1 | [2H]C([2H])([2H])Oc1cc2c(cc1OC)[C@@H]1Cc3ccc(OC)c(OC)c3CN1CC2 [Formula I4, (13a S)-2,9,10-trimethoxy-3-[(trideutero)-methoxy]-6,8,13,13a-tetrahydro-5H-isoquinolino[2,1-b]isoquinoline] | 90.3 ± 29.0 | 151.2 ± 31.6 | 61.5 ± 36.6 | 74.3 ± 38.0 |  |  |  |  |  |  |  |  |  |  |  |  |  |  |  |  | 
2 | COc1cc2c(cc1OC)[C@@H]1Cc3ccc(OC)c(OC)c3CN1CC2 [THP, L-tetrahydropalmatine, reference compound] | 86.8 ± 37.3 | 185.2 ± 39.7 | 40.6 ± 28.3 | 97.5 ± 33.6 | 27.41 | 68.36 | 253.23 ± 77.14 | 157.04 ± 60.6 | 111.5 ± 11.5 | 109.4 ± 20.6 | 105.00 ± 28.21 | 105.1 ± 20.0 | 112.7 ± 19.3 | 113.3 ± 18.3 | 114.2 ± 14.6 | 98.0 ± 30.1 | 81.63 ± 28.8 | 79.00 ± 28.2 | 91.6 ± 24.7 | 97.3 ± 14.5 | Heart rate [5, 9]: 399.3 ± 32.6 BTM; Heart rate [5, 10]: 377.1 ± 52.3 BTM; Heart rate [5, 11]: 387.3 ± 50.5 BTM; Heart rate [5, 12]: 399.8 ± 60.7 BTM; Heart rate [5, 13]: 408.8 ± 55.9 BTM; Heart rate [5, 14]: 429.8 ± 25.5 BTM; Heart rate [5, 15]: 391.8 ± 32.9 BTM; Heart rate [5, 16]: 372.1 ± 46.5 BTM; Heart rate [5, 17]: 329.0 ± 63.2 BTM; Heart rate [5, 18]: 340.0 ± 71.4 BTM; Heart rate [5, 19]: 372.0 ± 64.6 BTM; Heart rate [5, 20]: 400.0 ± 30.5 BTM; ALT [6]: 160.0 ± 70.6 U/L; AST [6]: 216.8 ± 91.6 U/L; histopathological examination of liver [6]: vacuolar degeneration of hepatocytes; plasma ALT and AST versus control group [6]: significant increase
3 | [2H]C([2H])([2H])Oc1ccc2c(c1OC)CN1CCc3cc(OC)c(OC)cc3[C@@H]1C2 [Formula I2, (13a S)-2,3,9-trimethoxy-10-[(trideutero)-methoxy]-6,8,13,13a-tetrahydro-5H-isoquinolino[2,1-b]isoquinoline] | 82.1 ± 16.3 | 64.5 ± 19.5 | 41.0 ± 10.7 | 46.5 ± 16.0 | 59.00 | 68.86 | 193.94 ± 44.3 | 140.59 ± 28.52 | 113.1 ± 15.7 | 113.4 ± 17.3 | 101.5 ± 27.46 | 102.25 ± 21.6 | 113.1 ± 14.2 | 102.3 ± 7.6 | 114.6 ± 19.4 | 95.5 ± 15.9 | 82.5 ± 19.8 | 92.8 ± 18.6 | 110.5 ± 15.5 | 100.0 ± 17.8 | Heart rate [5, 9]: 400.8 ± 32.1 BTM; Heart rate [5, 10]: 378.3 ± 30.3 BTM; Heart rate [5, 11]: 384.6 ± 48.2 BTM; Heart rate [5, 12]: 388.0 ± 21.4 BTM; Heart rate [5, 13]: 402.5 ± 59.3 BTM; Heart rate [5, 14]: 407.0 ± 36.5 BTM; Heart rate [5, 15]: 409.2 ± 41.7 BTM; Heart rate [5, 16]: 390.7 ± 41.7 BTM; Heart rate [5, 17]: 319.7 ± 57.2 BTM; Heart rate [5, 18]: 353.8 ± 66.7 BTM; Heart rate [5, 19]: 378.0 ± 47.6 BTM; Heart rate [5, 20]: 407.0 ± 42.6 BTM; ALT [6]: 172.8 ± 37.5 U/L; AST [6]: 195.0 ± 32.1 U/L; histopathological examination of liver [6]: vacuolar degeneration of hepatocytes; plasma ALT and AST versus control group [6]: significant increase
4 | [2H]C([2H])([2H])Oc1cc2c(cc1OC)CCN1Cc3c(ccc(OC)c3OC)C[C@@H]21 [Formula I3, (13a S)-3,9,10-trimethoxy-2-[(trideutero)-methoxy]-6,8,13,13a-tetrahydro-5H-isoquinolino[2,1-b]isoquinoline] | 79.6 ± 31.3 | 126.3 ± 29.6 | 45.1 ± 29.4 | 72.3 ± 37.8 | 44.80 | 68.67 |  |  |  |  |  |  |  |  |  |  |  |  |  |  | 
5 | [2H]C([2H])([2H])Oc1c(OC)ccc2c1CN1CCc3cc(OC)c(OC)cc3[C@@H]1C2 [Formula I1, (13a S)-2,3,10-trimethoxy-9-[(trideutero)-methoxy]-6,8,13,13a-tetrahydro-5H-isoquinolino[2,1-b]isoquinoline] | 82.4 ± 33.2 | 194.0 ± 35.7 | 42.6 ± 45.0 | 92.7 ± 25.1 |  |  |  |  |  |  |  |  |  |  |  |  |  |  |  |  | 
6 | [2H]C([2H])([2H])Oc1cc2c(cc1OC)CCN1Cc3c(ccc(OC)c3OC([2H])([2H])[2H])C[C@@H]21 [Formula I5, (13a S)-3,10-dimethoxy-2,9-di-[(trideutero)-methoxy]-6,8,13,13a-tetrahydro-5H-isoquinolino[2,1-b]isoquinoline] | 85.8 ± 28.0 | 112.7 ± 29.2 | 53.4 ± 23.5 | 66.5 ± 27.6 | 39.40 | 67.56 |  |  |  |  |  |  |  |  |  |  |  |  |  |  | 
